ChEMBL document CHEMBL1201862, “PubChem BioAssay data set” (2004)
“And” between values parts separate entries of the source, which are not always exact repeats. Equal entries are not always repeated.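 These data come from cells grown in 96-well plates and exposed to compound for 48 hours at five concentrations. GI50 marks 50% less growth.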 The source made the active and inactive calls. No stated cut-off is given here; in the data, active = GI50 up to about 1.1 µM and inactive = higher.

Assays:
Assay in all cases: DTP human tumour cell line panel, 48 h
MDA-N = system: MDA-N
786-0 = system: 786-0
HOP-92 = system: HOP-92
RXF 393 = system: RXF 393
Malme-3M = system: Malme-3M
M14 = system: M14
T47D = system: T47D
UACC-62 = system: UACC-62
SF-268 = system: SF-268
DU-145 = system: DU-145
NCI-H226 = system: NCI-H226
HT-29 = system: HT-29
CAKI-1 = system: CAKI-1
Hs-578T = system: Hs-578T
KM12 = system: KM12
NCI/ADR-RES = system: NCI/ADR-RES
MCF7 = system: MCF7
SK-MEL-5 = system: SK-MEL-5
HCT-116 = system: HCT-116
UO-31 = system: UO-31

Measured: GI50

O=C(Cc1ccc(Cl)cc1)Nc1ccc2oc(-c3ccccc3)nc2c1
inactive: MDA-N > 100 µM | 786-0 57 µM | HOP-92 > 100 µM | RXF 393 > 100 µM | Malme-3M > 100 µM | M14 > 100 µM | T47D > 100 µM | UACC-62 > 100 µM | SF-268 74 µM | DU-145 > 100 µM | NCI-H226 27.6 µM | HT-29 > 100 µM | CAKI-1 > 100 µM | Hs-578T > 100 µM | KM12 > 100 µM | NCI/ADR-RES 57.8 µM | MCF7 > 100 µM | SK-MEL-5 > 100 µM | HCT-116 > 100 µM

COc1ccccc1[S+]([O-])Nc1ccccc1 (centres undefined)
inactive: MDA-N > 100 µM | 786-0 > 100 µM | Malme-3M > 100 µM | T47D 11.9 µM | UACC-62 10.7 µM | SF-268 16.7 µM | DU-145 > 100 µM | NCI-H226 > 100 µM | HT-29 50.9 µM | Hs-578T 76 µM | KM12 12.5 µM | NCI/ADR-RES 91.4 µM | UO-31 33.6 µM | MCF7 > 100 µM | SK-MEL-5 25.5 µM | HCT-116 51.1 µM

O=C(C[C@@H]1CCCN2CCCC[C@H]12)N1c2ccccc2Sc2ccc(Cl)cc21
inactive: MDA-N 16 µM | 786-0 11.1 µM | RXF 393 13.6 µM | Malme-3M 16.2 µM | M14 4.95 µM | T47D 20.5 µM | SF-268 19.2 µM | DU-145 14 µM | NCI-H226 27.6 µM | HT-29 10.6 µM | CAKI-1 14.4 µM | Hs-578T 17.1 µM | KM12 13.3 µM | NCI/ADR-RES 14.8 µM | UO-31 12.9 µM | MCF7 18.2 µM | SK-MEL-5 11.7 µM | HCT-116 16 µM

CC1CCC2(C(=O)O)CCC3(C)C(=CCC4C5(C)CCC(O)C(C)(C)C5CCC43C)C2C1C (centres undefined)
inactive: MDA-N 14.6 µM | 786-0 4.63 µM | HOP-92 18.4 µM and 11.9 µM | RXF 393 6.12 µM and 11.4 µM | Malme-3M 15.1 µM and 14 µM | M14 2.16 µM | T47D 14.2 µM | UACC-62 19.6 µM and 10.8 µM | DU-145 9.16 µM | NCI-H226 19.7 µM and 11.1 µM | HT-29 20.7 µM and 11 µM | CAKI-1 6 µM and 3.7 µM | Hs-578T 8.71 µM | KM12 6.62 µM and 9.29 µM | NCI/ADR-RES 14.7 µM and 11.2 µM | UO-31 6.75 µM and 4.07 µM | MCF7 12.7 µM and 22 µM | HCT-116 14.4 µM and 7.28 µM

CO[C@]12CC(=O)C3(C(C[C@H]4CC5CCC6=CC(=O)CC[C@]6(OC(C)=O)C5C[C@@]43C)C1)C1C[C@H]3[C@@H]4CCC5=CC(=O)CC[C@]5(OC(C)=O)[C@H]4CC[C@]3(C)C12 (some centres undefined)
inactive: MDA-N 58.2 µM | 786-0 > 100 µM | HOP-92 > 100 µM | Malme-3M > 100 µM | M14 > 100 µM | T47D > 100 µM | UACC-62 > 100 µM | SF-268 > 100 µM | DU-145 > 100 µM | HT-29 > 100 µM | CAKI-1 > 100 µM | Hs-578T > 100 µM | NCI/ADR-RES > 100 µM | UO-31 > 100 µM | MCF7 > 100 µM | SK-MEL-5 39.4 µM | HCT-116 > 100 µM

CCOC(=O)NC(=S)c1ccc(O)c2ccccc12
inactive: MDA-N 26.4 µM | 786-0 > 100 µM | Malme-3M 33.1 µM | M14 70.1 µM | T47D > 100 µM | UACC-62 68.1 µM | SF-268 12.4 µM | DU-145 > 100 µM | HT-29 66.1 µM | CAKI-1 44.2 µM | Hs-578T 21.7 µM | KM12 39 µM | NCI/ADR-RES 25.8 µM | UO-31 45.6 µM | MCF7 72.1 µM | SK-MEL-5 42.8 µM | HCT-116 84.7 µM

COc1cccc(NC(=O)CC(=O)N2N=C(C)C(/N=N/c3ccc(S(=O)(=O)CCOS(=O)(=O)O)cc3)C2=O)c1 (centres undefined)
inactive: MDA-N 3.69 µM | 786-0 2.74 µM | HOP-92 2.21 µM | RXF 393 4.06 µM | Malme-3M 11.1 µM | M14 5.83 µM | T47D 11.4 µM | SF-268 7.82 µM | DU-145 14.8 µM | NCI-H226 4.66 µM | HT-29 3.76 µM | CAKI-1 2.45 µM | Hs-578T 14 µM | KM12 11.6 µM | NCI/ADR-RES 4.2 µM | UO-31 12.1 µM | MCF7 2.09 µM | SK-MEL-5 3.52 µM | HCT-116 3.22 µM
